Results as given in patent US7550438B2, “Methods for production of growth-promoting proteins and peptides for kidney epithelial cells” (The University of Chicago, priority 1997, dated 2009).
Values joined by “and” are separate entries in the source; they are usually repeats but may differ in a detail not shown here. Equal values may be shown once. “Also recorded” adds a separate entry of the source. Read-outs that look alike come from different tables or passages of the source. No end group written: not given here.

How the values were obtained:
[1] = tested on: BSC-1 cells; experiment: Time of contact with cells required to commit them to accelerated growth (washout, count at four days); assay type: cell-based, African green monkey; conditions: for exposure time sufficient for maximal growth stimulation (commitment time): peptide then washed off, cells counted four days later
Experimental: Confluent monolayers of BSC-1 cells are prepared as herein and exposed to the 14-Ser peptide (0.5 μg/ml) for different amounts of time (0 to 30 minutes). At the end of the defined exposure period, culture medium containing the mitogen was aspirated, the monolayer was rinsed to remove non-adherent peptide, and fresh medium was added. Four days later the number of cells in the culture was counted.
In these experiments a solution containing the peptide of interest was added to the cell monolayer; culture medium was then aspirated at a specified time thereafter. Then fresh medium without the peptide was added and the number of cells was counted four days later.

[2] = tested on: monkey kidney epithelial cells of the BSC-1 line; experiment: Growth-promoting (mitogenic) activity: number of cells in BSC-1 cultures counted four days after addition; assay type: cell-based, African green monkey; conditions: for stimulation of growth (increase in cell number compared to control at four days): agent alone at maximal mitogenic concentration (14-Ser 0.5 μg/ml; EGF, IGF-I 50 ng/ml; acidic FGF 100 pg/ml; basic FGF 1,000 pg/ml; vasopressin 75 pg/ml; K 10.4 mM; Na 180 mM); for stimulation of growth in the presence of the 14-Ser peptide: mitogenic signal at maximal concentration plus 14-Ser peptide 0.5 μg/ml; for stimulation of growth in the presence of the 14-Ser peptide / mitogenic activity on BSC-1 cells (in words): four days; for EC50: read-out: Growth-Stimulation K½; for mitogenic activity on BSC-1 cells (in words): peptide 0.5 to 20 μg/ml
Experimental: For the assay, cells were detached from the dish with a solution of trypsin and an aliquot was counted in a hemocytometer.
Nontransformed monkey kidney epithelial cells of the BSC-1 line were grown to confluence in Dulbecco's modified Eagle's medium containing 1% calf serum and […] in 55-mm culture dishes at 38° C. in a CO2 incubator. When cells achieved a density of about 10^6 per dish, the spent medium was removed and replaced with fresh medium containing 0.5% calf serum and the 14-amino acid peptide (0.5 μg/ml). Additions of each of the mitogenic signals at maximal concentration were made to the culture medium. Four days later the number of cells in each culture was counted in a hemocytometer. Values obtained were the mean of 3 separate cultures.
Nontransformed monkey kidney epithelial cells of the BSC-1 line were grown to confluence in Dulbecco's modified Eagle's medium containing 1% calf serum and 1.6 μM biotin at 38° C. in a CO2 incubator. When cells achieved a density of about 10^6 per dish, the spent medium was removed and replaced with fresh medium containing 0.5% calf serum and different amounts of the two peptides. Four days later the number of cells in each culture was counted. Each value is the mean of 3 separate cultures.
To delineate the sequence of the smallest peptide that could stimulate renal cell growth, synthetic peptides of different lengths were prepared (see below), and purified by reversed-phase HPLC on a C18 column.
The peptide of interest was then purified on a reversed-phase C18 column HPLC as described herein using a gradient of 1-80% acetonitrile in 0.1% trifluroacetic acid (TFA). The purified peptide was then lyophilized to remove the acetonitrile and TFA and the lyophilized powder was weighed, dissolved in buffer and added to the culture medium to measure its effect on the growth of monkey kidney epithelial cells as described herein. […] A value termed the K1/2, was used.

[3] = tested on: rats with mercuric chloride-induced acute renal failure; experiment: Mercuric chloride-induced acute renal failure in rats: survival and renal function; assay type: in vivo, rat
Source text: Nephrotoxic and ischemic acute renal failure (ARF) induced experimentally in rats have long been used to model this syndrome in humans. […] Male rats weighed 200-225 gm at the start of the experiment. This dose was used because preliminary experiments indicated it results in survival of 25-50% of the animals 7 days later. […] An increase in serum creatinine concentration signals a decline in renal function because the injured kidney is unable to excrete endogenous creatinine in the urine so it accumulates in the blood.
The synthetic peptide […] (14-Ser) (SEQ ID NO: 15) (dissolved in sterile 0.01% bovine serum albumin in phosphate-buffered saline) was injected subcutaneously into rats to determine its effect on survival, recovery of renal fucntion, and stimulation of DNA synthesis. Multiple different peptides were studied including 14-Ser, […] (14-mer) (SEQ ID NO: 39), […] (16-mer) (SEQ ID NO: 4) […] (11-mer) (SEQ ID NO: 6), and […] (11-mer) (SEQ ID NO: 41). Different concentrations and times of administration were tested and compared.
Acute tubular necrosis was induced in 44 rats by the subcutaneous (s.c.) injection of mercuric chloride, and a single dose of 14-ser was administered s.c. 1 hour afterwards. Different amounts of the peptide were given to assesses its capacity to affect the outcome. Survival 7 days later was about twice as high in animals given 100-150 μg of peptide (63%) than in rats given 0-75 μg peptide (29%).
To determine the effect of the peptide on survival and recovery of renal function, acute tubular necrosis was induced in 59 rats; 29 received 14-Ser (100 μg/rat) and 30 received an equal volume of the vehicle s.c. 1 hour after administration of mercuric chloride. Enhanced survival (top panel) and renal functional recovery (bottom panel) of rats give a WGF-derived peptide after mercuric chloride-induced acute tubular necrosis are shown in FIG. 2A and FIG. 2B. Mercuric chloride was injected subcutaneously into each of the 59 rats, and 1 hour later 100 μg of WGF peptide (14-Ser) (n=29 rats) or the vehicle […] was given. Survival was greater in rats given the peptide than in animals receiving the vehicle as early as day 3 after administration of mercuric chloride. Blood was obtained from the tail vein on the days indicated, and serum creatinine concentration was measured. […] On days 2, 3 and 4, the lower creatinine concentration in peptide-treated rats indicates accelerated recovery of kidney function.
Experimental ARF was induced in rats by subcutaneous injection of mercuric chloride. The synthetic peptide […] […] In one experiment a total of 17 rats were injected with a dose of mercuric chloride shown to induce ARF. The different amounts of the peptide (known to stimulate growth of kidney cells in culture) were injected into the animals to assess capacity to improve the outcome. […] In contrast, two of three rats given 100 micrograms of peptide were alive, as were five of six given 200 micrograms. In summary, none of eight rats (0%) given up to 50 micrograms of peptide survived, whereas seven of nine (78%) given 100-200 micrograms did. Thus, the 11-mer WGF peptide improves survival in nephrotoxic ARF.
[…] Four days later, 63% of rats given the 14-Ser peptide were alive compared to 25% of animals receiving the vehicle (chi squared, P-0.0499); 50% of rats receiving EGF were alive (chi squared, P=N.S.). On day 5, 50% of rats given EGF were alive, compared to 12.5% of animals given the vehicle (chi squared, P=0.0436). […] These observations indicate that the 14-Ser peptide and EGF given after renal injury are similar in their ability to improve survival from the ARF syndrome.

[4] = tested on: BSC-1 cells; experiment: Inhibition of WGF and WGF-derived peptide mitogenesis in BSC-1 cells; assay type: cell-based, African green monkey; conditions: for effect of pentamer on growth stimulation by hexamer YPQGNH: pentamer added to culture medium, hexamer added at the same time or afterwards
Source text: In these studies the pentamers, PQGNH (SEQ ID NO: 36) or YPQGN (SEQ ID NO: 3) were synthesized, purified by HPLC and then assayed for growth-promoting activity. […] Because the pentamers are not mitogenic, when they bind to the site, growth is not observed. After pentamers are bound to the site, the pentamers appear to prevent the hexapeptide from gaining access to the membrane.
Transforming growth factor (TGF)-β2 is an autocrine growth inhibitor secreted by BSC-1 cells that limits proliferation in culture. Exogenous TGF-β2 was added to the culture medium to determine its capacity to inhibit the growth-promoting effect of 14-Ser. TGF-β2 at a concentration of 1 ng/ml was sufficient to abolish the 25% stimulation of growth induced by 14-Ser. At a TGF-β2 concentration of 2 ng/ml, growth was inhibited by 30% in the presence or absence of 14-Ser; at 10 ng/ml, inhibition was 60%.
Because TGF-β2 inhibits proliferation induced by diverse mitogens, a more specific inhibitor was sought. […] Cells were preincubated for 30 minutes with the pentapeptide YPQGN (SEQ ID NO: 3). The culture medium was then aspirated, the monolayer was rinsed, fresh medium was added, and the number of cells counted 4 days later. Preincubation of cells with YPQGN (SEQ ID NO: 3) inhibited the mitogenic effect of the 6-amino acid peptide.

[5] = peptide alone, BSC-1 cells, 4 days in culture

## Nc1ncnc2c1ncn2[C@@H]1O[C@H](COP(=O)(O)O)[C@@H](O)[C@H]1O [adenosine monophosphate, reference compound]
[1]
  commitment time: 14 h

## [Cl-].[K+] [potassium chloride, reference compound]
[2]
  stimulation of growth (increase in cell number compared to control at four days): 18%
  stimulation of growth in the presence of the 14-Ser peptide: 35%

## [Cl-].[Na+] [sodium chloride, reference compound]
[2]
  stimulation of growth (increase in cell number compared to control at four days): 25%
  stimulation of growth in the presence of the 14-Ser peptide: 41%

## NC(=O)CC[C@@H]1NC(=O)[C@H](Cc2ccccc2)NC(=O)[C@H](Cc2ccc(O)cc2)NC(=O)[C@@H](N)CSSC[C@@H](C(=O)N2CCC[C@H]2C(=O)N[C@@H](CCCN=C(N)N)C(=O)NCC(N)=O)NC(=O)[C@H](CC(N)=O)NC1=O [vasopressin, reference compound]
[2]
  stimulation of growth (increase in cell number compared to control at four days): 14%
  stimulation of growth in the presence of the 14-Ser peptide: 36%
[1]
  exposure time sufficient for maximal growth stimulation (commitment time): 2 min

## AQPYPEGNHEA
[3]; 50 micrograms s.c. two hours after mercuric chloride
  rats dead three days later: three of three
[3]; 100-200 micrograms of peptide, nine rats
  survival three days later: 78%
[3]; 100 micrograms s.c. two hours after mercuric chloride
  rats alive three days later: two of three
[3]; 200 micrograms s.c. two hours after mercuric chloride
  rats alive three days later: five of six
[3]; up to 50 micrograms of peptide (incl. saline alone), eight rats
  survival three days later: 0%
[2]; [5]
  EC50: 206 nM

## AQPYPEGNHEASYG
[2]; [5]
  EC50: 128 nM

## AQPYPQGNHEAAYG
[2]; + keratan sulfate (2 μg/ml for 5 minutes prior to peptide, b158; 10 μg/ml)
  EC50: 54 nM
[2]; [5]
  EC50: 199 nM

## AQPYPQGNHEAQPYPQGNHEAQPYPQGNHEAQPYPQGNHE
[2]; [5]
  EC50: 7 nM
[1]
  exposure time sufficient for maximal growth stimulation (commitment time): behaved similarly

## AQPYPQGNHEATSSSF
[2]; [5]
  EC50: 218 nM

## FPEGNH
[2]; [5]
  EC50: 2720 nM

## MAPS peptide: 11-mer AQPYPQGNHEA linked to a branched polylysine core, four branches each ligated to one 11-mer molecule (also: four copies linked to a branched polylysine core (MAPS))
[2]
  mitogenic activity on BSC-1 cells (in words): stimulated DNA synthesis and proliferation

## PQGNH
[2]
  mitogenic activity on BSC-1 cells (in words): Neither was mitogenic; also recorded: do not alter growth
[4]
  effect of pentamer on growth stimulation by hexamer YPQGNH: blocked

## Pentosan polysulfate [reference compound]
[4]
  effect on activity of WGF: blocked

## QPYPQG
[2]
  mitogenic activity on BSC-1 cells (in words): not mitogenic

## WAVGHLM [WAVGHLM-amide, reference compound]
[2]; [5]
  EC50: ~10000 nM

## YPEGDH
[2]; [5]
  EC50: 11000 nM

## YPEGKH
[2]; [5]
  EC50: 14100 nM

## YPEGNH
[2]; [5]
  EC50: 301 nM
[1]; cells exposed to keratan sulfate 2 μg/ml for 5 minutes before peptide
  exposure time for maximal mitogenic effect after keratan sulfate pretreatment: 1.5 min
[1]
  exposure time sufficient for maximal growth stimulation (commitment time): 3 min

## YPQGN
[2]
  mitogenic activity on BSC-1 cells (in words): Neither was mitogenic; also recorded: do not alter growth
[4]
  effect of preincubation on mitogenic effect of partially-purified Wound Growth Factor: completely abolished
  effect of pentamer on growth stimulation by hexamer YPQGNH: blocked
[4]; cells preincubated 30 minutes, rinsed, count 4 days later
  effect of preincubation on mitogenic effect of the 6-amino acid peptide YPQGNH: inhibited
[4]; preincubation for 10 or 30 minutes
  effect of preincubation on growth-promoting effect of the 14-Ser peptide: completely blocked

## YPQGNH [NH2-tyrosine-proline-glutamine-glycine-asparagine-histidine-COOH]
[2]; [5]
  EC50: 352 nM and 332 nM

## YPQGNH [YPQGNH-amide]
[2]; [5]
  EC50: 8850 nM

## YPQGNHEASYG
[2]; + heparin (1 μg/ml)
  EC50: 166 nM
[2]; [5]
  EC50: 166 nM

## YPRGNH [reference compound]
[2]
  stimulation of growth (increase in cell number compared to control at four days): 10%
  mitogenic activity on BSC-1 cells (in words): not mitogenic to the same extent

## acidic fibroblast growth factor [acidic FGF, reference compound]
[2]
  concentration equivalent in mitogenic potency to partially-purified WGF: 0.02 ng/mL
  effect of keratan sulfate on mitogenic activity: no effect
  stimulation of growth (increase in cell number compared to control at four days): 17%
  stimulation of growth in the presence of the 14-Ser peptide: 44%
[2]; heparin added to BSC-1 cells with the factor
  effect of heparin on mitogenic activity: inhibits
[2]; maximal concentrations, 11-mer with wound conditioned buffer
  combined mitogenic effect with WGF (additivity): additive

## insulin-like growth factor-I [IFG-I, reference compound]
[2]
  stimulation of growth (increase in cell number compared to control at four days): 20%
  stimulation of growth in the presence of the 14-Ser peptide: 38%

B1: TGF-β2: autocrine growth inhibitor secreted by BSC-1 cells (protein, UniProt P61811 303-414, looked up)
Transforming growth factor …: ALDAAYCFRNVQDNCCLRPLYIDFKRDLGWKWIHEPKGYNANFCAGACPYLWSSDTQHSRVLSLYNTINPEASASPCCVSQDLEPLTILYYIGKTPKIEQLSNMIVKSCKCS
[4]; TGF-β2 1 ng/ml
  effect on the 25% stimulation of growth induced by 14-Ser: abolish
[4]; TGF-β2 2 ng/ml, in the presence or absence of 14-Ser
  growth inhibition: 30%
[4]; TGF-β2 10 ng/ml
  growth inhibition: 60%
